Laboratory results reported in PubChem BioAssay (NCI).
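Cultured in 96-well plates, cells were exposed to test compound for 48 hours across five concentrations. TGI is the concentration that stops growth completely.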

What was measured:
Assay in all cases: NCI-60 cell line screen, 48 h
[1] = test system: HCC-2998 colon
[2] = test system: SK-MEL-5 melanoma
[3] = test system: HT29 colon
[4] = test system: U251 CNS
[5] = test system: HL-60(TB) leukemia
[6] = test system: SNB-19 CNS
[7] = test system: LOX IMVI melanoma
[8] = test system: COLO 205 colon
[9] = test system: HOP-92 NSCLC
[10] = test system: MDA-MB-435
[11] = test system: MDA-MB-231 breast

Structure (SMILES) | TGI [1] [µM] | TGI [2] [µM] | TGI [3] [µM] | TGI [4] [µM] | TGI [5] [µM] | TGI [6] [µM] | TGI [7] [µM] | TGI [8] [µM] | TGI [9] [µM] | TGI [10] [µM] | TGI [11] [µM]
COc1ccccc1C1C(Cl)C(=O)N1n1cnc2ccccc2c1=O (configuration not stated) | > 100 | > 100 | > 100 | > 100 | > 100 | > 100 | > 100 | > 100 |  |  | 
O=C(CC(CC(=O)Oc1c(Br)cc(Br)cc1C(=O)O)C(=O)Oc1c(Br)cc(Br)cc1C(=O)O)Oc1c(Br)cc(Br)cc1C(=O)O | > 100 | > 100 | > 100 | > 100 | 96.6 | > 100 | > 100 | > 100 | 49.8 |  | 
C=C(C)C(=O)O[C@H]1CC2=C[C@@H](C[C@@]3(C)O[C@@H]3[C@H]3OC(=O)C(=C)[C@@H]31)OC2=O | 9.82 | 8.22 | 5.93 | 14.6 | 1.12 | 49.1 | 1.29 | 3.4 | 2.78 |  | 
CCOP(=O)(C=C=C1CCC2[C@@H]3CCc4cc(OC)ccc4C3CC[C@]12C)OCC (some centres not stated) | 25.2 | 14.2 | 17.7 | 25.5 | 2.87 | 28.3 | 24.8 | 22.7 | 22.5 | 25.5 | 
CC(C)(C)OC(=O)N[C@H]1CC(O)c2ccccc2N(CC(=O)O)C1=O (some centres not stated) | > 100 | > 100 | > 100 |  | > 100 | > 100 | > 100 | > 100 | > 100 |  | 
Cc1nc2c(c(=O)[nH]1)S/C(=C(/C#N)c1nc3ccccc3[nH]1)N2c1ccccc1 | > 100 | > 100 | > 100 | > 100 | > 100 | > 100 |  | > 100 | > 100 |  | 
Nc1ccccc1Nc1ccccc1C(=O)[O-].Nc1ccccc1Nc1ccccc1C(=O)[O-].[Zn+2] | > 100 | > 100 | > 100 | > 100 |  | > 100 |  | > 100 |  |  | 
CCN1CCCC(C#N)(c2ccccc2)CC1 (configuration not stated) | > 100 | > 100 | > 100 | > 100 | > 100 | > 100 |  | > 100 | > 100 |  | 
CCc1c(CN)c(CC)c(CNC2=NCCN2)c(CC)c1CNC1=NCCN1 | > 100 | > 100 | > 100 | > 100 |  | > 100 |  | > 100 | > 100 | > 100 | 
COc1ccc(N=C2S/C(=N\C(=Nc3ccccc3)SCc3ccccc3)N(c3ccccc3)C2=Nc2ccc(OC)cc2)cc1 | > 100 | > 100 | > 100 |  | > 100 | > 100 |  | > 100 | > 100 |  | > 100
